From US6787531B1, “Pharmaceutical composition for use as a contraceptive” (Schering AG, priority 1999, dated 2004) come the findings set out here.

A short description of data set [1]: Absolute bioavailability of drospirenone after oral administration. The settings on record: female, human, in vivo.
Data set [2] can be described thus: Relative bioavailability of drospirenone and ethinylestradiol from tablets versus oral suspension, open-label crossover study. The class given is in vivo. Particulars: female, human, tablet 3 mg drospirenone + 0.03 mg ethinylestradiol, healthy women, serum concentrations, read-out: relative bioavailability from the tablets compared to the oral suspension. The method, then:
42 healthy women between 18 and 35 years of age were included in an open-label crossover study after their informed consent had been obtained. The aim of the study was to investigate the relative bioavailability of drospirenone and ethinylestradiol from a tablet formulation containing 3 mg drospirenone and 0.03 mg ethinylestradiol with reference to an oral suspension containing 6 mg of drospirenone and 0.06 mg ethinylestradiol per vial.
The bioavailability was determined using serum concentrations of each active agent as parameters. […] It was therefore concluded that both drospirenone and ethinylestradiol are completely released from the tablets in vivo.

Data set [3] can be described thus: Dissolution of drospirenone from tablets, USP XXIII Paddle Method. The class given is physicochemical. The settings on record: 900 ml water, 37° C., 50 rpm. The method, then: Instead of providing the drospirenone in micronized form, it is possible to dissolve it in a suitable solvent, e.g. methanol or ethyl acetate, and spray it onto the surface of inert carrier particles followed by incorporation of the particles containing drospirenone on their surface in the composition.
The rate of dissolution of drospirenone from the tablets prepared in Example 1 is determined by the USP XXIII Paddle Method using a USP Dissolution Test Apparatus 2 including 6 covered glass vessels and 6 paddles. Tablets are placed in 900 ml water at a temperature of 37° C. (±0.5° C.) and stirred at 50 rpm.

A short description of data set [4]: Solubility and chemical stability of the active substances. The class given is physicochemical. Particulars: for solubility: water and aqueous buffers at various pH values. The source says:
To ensure good bioavailability of the compound, it is therefore advantageously provided in a form that promotes rapid dissolution thereof.
This has the added advantage of facilitating a more homogenous distribution of the ethinylestradiol throughout the composition which might otherwise be difficult to obtain because ethinylestradiol is incorporated in extremely small amounts. When ethinylestradiol is provided in micronized form, it preferably has the following particle size distribution as determined under the microscope: 100% of the particles have a diameter of ≦15.0 μm, 99% of the particles have a diameter of ≦12.5 μm, 95% of the particles have a diameter of ≦10.0 μm, and 50% of the particles have a diameter of ≦3.0 μm. Furthermore, no particle is larger than 20 μm, and […] have a diameter of ≧15 μm and ≦20 μm.

In the case of `C[C@]12CCC(=O)C=C1[C@@H]1C[C@@H]1[C@H]1[C@@H]3[C@@H]4C[C@@H]4[C@@]4(CCC(=O)O4)[C@@]3(C)CC[C@@H]12` [drospirenone, 6β,7β;15β,16β-dimethylene-3-oxo-17α-pregn-4-ene-21,17-carbolactone], the bioavailability in data set [1] (oral administration of 2 mg drospirenone, 8 young healthy women) turned out to be 76%; in data set [1] (oral microcrystalline suspension containing 3.13 mg drospirenone, 6 postmenopausal women) it was 85%; in data set [2], 107%. Also, the “drospirenone dissolved within 30 minutes” value in data set [3] (film-coated tablets, FIG. 3) is “more than 70%”; in data set [3] (tablet cores, FIG. 2), “more than 70%”. In addition, the “stability under acid conditions” value in data set [4] (acid conditions) is “rearranged to an inactive isomer”. Also, the “stability under alkaline conditions” value in data set [4] (alkaline conditions) was “hydrolysed”. The solubility result in data set [4] is “sparingly soluble”.

For `C#C[C@]1(O)CC[C@H]2[C@@H]3CCc4cc(O)ccc4[C@H]3CC[C@@]21C` [ethinylestradiol, 17α-ethinylestradiol], the bioavailability in data set [2] was 117%. Further, the solubility entry in data set [4] is on record as “sparingly soluble”.
